Experimental data from patent US20250170248A1, “SMARCA DEGRADERS AND USES THEREOF” (Kymera Therapeutics, Inc., priority 2021, published 2025).

Tests used:
Assay type in all cases: cell-based
SMARCA2 [1] = biological target: T1, SMARCA2 (Homo sapiens, UniProt P51531); experiment: MSD SMARCA2 degradation in A549 cell line; settings: for SMARCA2 MSD A549 degradation 24 h: Average Dmax % / DC50: A549 cells; for DC50 / Dmax: 24 h; for DC50: read-out: SMARCA2 MSD A549 degradation 24 h: Average external-Abs DC50; for Dmax: A549, A549 cells
T1 sequence (P51531 whole entry): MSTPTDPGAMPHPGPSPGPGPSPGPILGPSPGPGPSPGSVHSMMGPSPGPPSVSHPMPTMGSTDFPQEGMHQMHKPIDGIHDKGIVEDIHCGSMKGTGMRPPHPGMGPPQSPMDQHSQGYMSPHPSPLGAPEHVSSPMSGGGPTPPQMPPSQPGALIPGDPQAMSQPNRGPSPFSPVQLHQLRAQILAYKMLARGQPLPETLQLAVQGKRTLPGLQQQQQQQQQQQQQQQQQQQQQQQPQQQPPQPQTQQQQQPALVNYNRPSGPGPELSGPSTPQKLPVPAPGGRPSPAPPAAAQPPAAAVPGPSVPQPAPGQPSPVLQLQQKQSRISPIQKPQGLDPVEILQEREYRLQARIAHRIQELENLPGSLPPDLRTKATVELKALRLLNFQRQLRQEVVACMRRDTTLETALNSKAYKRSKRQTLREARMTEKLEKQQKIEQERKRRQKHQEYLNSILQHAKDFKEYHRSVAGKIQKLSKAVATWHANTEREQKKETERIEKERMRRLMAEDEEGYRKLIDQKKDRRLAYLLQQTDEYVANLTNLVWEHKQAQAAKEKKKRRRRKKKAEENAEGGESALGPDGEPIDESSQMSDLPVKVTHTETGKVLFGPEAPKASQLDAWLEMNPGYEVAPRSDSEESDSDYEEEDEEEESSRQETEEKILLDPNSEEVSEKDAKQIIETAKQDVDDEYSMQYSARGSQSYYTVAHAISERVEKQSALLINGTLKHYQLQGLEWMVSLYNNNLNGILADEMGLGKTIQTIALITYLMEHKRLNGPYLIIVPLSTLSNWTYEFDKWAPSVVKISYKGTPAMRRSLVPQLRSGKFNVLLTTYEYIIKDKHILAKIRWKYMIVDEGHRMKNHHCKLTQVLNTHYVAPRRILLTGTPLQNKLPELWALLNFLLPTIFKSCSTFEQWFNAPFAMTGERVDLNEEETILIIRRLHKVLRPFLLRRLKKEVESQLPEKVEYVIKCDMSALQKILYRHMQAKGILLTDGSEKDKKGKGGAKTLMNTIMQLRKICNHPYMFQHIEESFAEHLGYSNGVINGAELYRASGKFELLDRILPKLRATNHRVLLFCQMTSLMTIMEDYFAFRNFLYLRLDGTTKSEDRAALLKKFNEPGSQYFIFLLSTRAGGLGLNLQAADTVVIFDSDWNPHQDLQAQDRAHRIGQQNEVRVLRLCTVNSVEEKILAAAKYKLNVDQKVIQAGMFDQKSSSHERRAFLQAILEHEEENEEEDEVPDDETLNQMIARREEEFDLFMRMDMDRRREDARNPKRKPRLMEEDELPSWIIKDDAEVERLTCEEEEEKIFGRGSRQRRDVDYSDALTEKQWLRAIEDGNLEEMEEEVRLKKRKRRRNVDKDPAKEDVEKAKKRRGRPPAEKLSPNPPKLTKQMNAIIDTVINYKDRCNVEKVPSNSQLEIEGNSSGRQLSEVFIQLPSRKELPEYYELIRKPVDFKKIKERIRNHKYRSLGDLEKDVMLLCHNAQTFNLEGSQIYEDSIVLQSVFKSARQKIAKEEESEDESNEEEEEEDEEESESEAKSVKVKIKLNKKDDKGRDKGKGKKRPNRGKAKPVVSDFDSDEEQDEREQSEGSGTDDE
How it was run: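 SMARCA2 protein remaining after 24 h exposure of A549 cells (top concentration 1000 nM, 3-fold dilutions) was measured by MSD electrochemiluminescence immunoassay of cell lysates. Results are given as binned DC50 and maximal degradation (Dmax) codes.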

SMARCA4 = biological target: T2, SMARCA4 (Homo sapiens, UniProt P51532); experiment: SMARCA4 Western blot degradation in MV4-11 cells; settings: for SMARCA4 MSD MV411 degradation 24 h: average Dmax % / DC50: MV4-11 cells; for DC50 / Dmax: 24 h; for DC50: read-out: SMARCA4 MSD MV411 degradation 24 h: Mean external-Abs DC50; for Dmax: MV4-11, MV4-11 cells, read-out: SMARCA4 MSD MV411 degradation 24 h: average Dmax %
T2 construct: SMARCA2/SMARCA4 protein degradation selectivity in MV4-11 cells; endogenous in cells; host or cells: MV4-11
T2 sequence (P51532 whole entry): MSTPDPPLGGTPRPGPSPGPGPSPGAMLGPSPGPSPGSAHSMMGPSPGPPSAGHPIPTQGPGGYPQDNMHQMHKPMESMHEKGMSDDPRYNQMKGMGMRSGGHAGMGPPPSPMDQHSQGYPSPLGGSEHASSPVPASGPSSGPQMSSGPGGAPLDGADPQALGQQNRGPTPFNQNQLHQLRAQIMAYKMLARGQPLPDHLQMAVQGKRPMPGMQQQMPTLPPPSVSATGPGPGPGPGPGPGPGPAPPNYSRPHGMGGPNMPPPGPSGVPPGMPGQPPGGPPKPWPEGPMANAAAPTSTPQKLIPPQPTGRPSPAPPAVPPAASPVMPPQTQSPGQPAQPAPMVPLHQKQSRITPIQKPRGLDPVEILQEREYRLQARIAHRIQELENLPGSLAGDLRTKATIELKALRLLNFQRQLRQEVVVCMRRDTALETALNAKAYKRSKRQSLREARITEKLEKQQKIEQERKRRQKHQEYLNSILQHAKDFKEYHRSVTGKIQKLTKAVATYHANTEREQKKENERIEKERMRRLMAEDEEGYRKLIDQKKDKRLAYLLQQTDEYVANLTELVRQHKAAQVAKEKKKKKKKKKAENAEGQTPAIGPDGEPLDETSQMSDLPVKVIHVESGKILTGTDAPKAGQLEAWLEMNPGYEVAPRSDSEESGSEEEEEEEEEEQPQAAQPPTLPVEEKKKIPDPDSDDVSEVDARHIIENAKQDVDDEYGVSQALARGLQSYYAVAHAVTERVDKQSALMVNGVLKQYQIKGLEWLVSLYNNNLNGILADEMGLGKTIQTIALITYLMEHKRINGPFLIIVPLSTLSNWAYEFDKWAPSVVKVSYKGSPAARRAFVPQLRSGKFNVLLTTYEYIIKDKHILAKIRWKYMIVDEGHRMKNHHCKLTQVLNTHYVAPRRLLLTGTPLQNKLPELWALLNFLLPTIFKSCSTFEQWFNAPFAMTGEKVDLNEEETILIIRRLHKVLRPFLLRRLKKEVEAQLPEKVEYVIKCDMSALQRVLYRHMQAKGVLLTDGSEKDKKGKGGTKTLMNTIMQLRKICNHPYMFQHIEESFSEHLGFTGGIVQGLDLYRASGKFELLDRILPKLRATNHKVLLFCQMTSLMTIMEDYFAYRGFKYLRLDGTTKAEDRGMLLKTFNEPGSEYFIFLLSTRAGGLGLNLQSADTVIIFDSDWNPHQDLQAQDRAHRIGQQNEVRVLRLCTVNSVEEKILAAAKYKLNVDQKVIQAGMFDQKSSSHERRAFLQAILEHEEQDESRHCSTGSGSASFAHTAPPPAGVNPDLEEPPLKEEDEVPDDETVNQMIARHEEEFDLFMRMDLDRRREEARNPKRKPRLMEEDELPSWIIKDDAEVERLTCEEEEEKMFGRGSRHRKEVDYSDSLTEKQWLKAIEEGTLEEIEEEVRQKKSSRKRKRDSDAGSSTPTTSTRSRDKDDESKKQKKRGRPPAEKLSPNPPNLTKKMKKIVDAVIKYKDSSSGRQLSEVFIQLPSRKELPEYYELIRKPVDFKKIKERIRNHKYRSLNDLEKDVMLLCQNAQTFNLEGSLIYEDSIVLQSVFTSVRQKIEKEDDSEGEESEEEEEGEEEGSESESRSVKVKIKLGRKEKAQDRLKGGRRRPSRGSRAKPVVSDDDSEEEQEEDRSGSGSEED
How it was run: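 Protein levels quantified by LI-COR Western blot (beta-actin loading control) in RIPA lysates of MV4-11 cells after 24 h compound exposure. Degradation reported as DC50, Dmax % at 24 h and SMARCA2 vs SMARCA4 selectivity, each binned into letter codes.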

SMARCA2 [2] = biological target: T1, SMARCA2; experiment: SMARCA2 Western blot degradation in MV4-11 cells; design: SMARCA2/SMARCA4 protein degradation selectivity in MV4-11 cells; endogenous in cells; host or cells: MV4-11; settings: for SMARCA2 MSD MV411 degradation 24 h: average Dmax % / DC50 / Selectivity in MV411: MV4-11 cells; for SMARCA2 MSD MV411 degradation 24 h: average Dmax % / DC50 / Dmax: 24 h; for DC50: read-out: SMARCA2 MSD MV411 degradation 24 h: Mean external-Abs DC50; for Selectivity in MV411: SMARCA2/4 selectivity; for Dmax: MV4-11, MV4-11 cells, read-out: SMARCA2 MSD MV411 degradation 24 h: average Dmax %

SMARCA2 MSD A549 degradation 24 h: Average Dmax % (SMARCA2 [1]) | DC50 (SMARCA2 [1]) [µM] | SMARCA4 MSD MV411 degradation 24 h: average Dmax % (SMARCA4) | DC50 (SMARCA4) [µM] | SMARCA2 MSD MV411 degradation 24 h: average Dmax % (SMARCA2 [2]) | DC50 (SMARCA2 [2]) [µM] | Selectivity in MV411 (SMARCA2 [2]) | Dmax (SMARCA2 [1]) [%] | Dmax (SMARCA4) [%] | Dmax (SMARCA2 [2]) [%] | SMILES
A (A (>90% degradation)) | > 0.1 | C (C (50-70% degradation)) | > 0.1 | B (B (>70-90% degradation)) | 0.01 to 0.1 | C (C (10-100 fold)) |  |  |  | Cc1ncsc1-c1ccc(CNC(=O)[C@@H]2C[C@@H](O)CN2C(=O)[C@@H](NC(=O)[C@H]2CCC3(CC2)C[C@H](N2CCC4(CC2)CN(C(=O)N2CCN5c6cc(-c7ccccc7O)nnc6NC[C@H]5C2)CCO4)C3)C(C)(C)C)cc1 (single isomer, unassigned) [I-93]
 | 0.01 to 0.05 |  | > 0.1 |  | 0.001 to 0.01 | A (A (>500 fold)) | > 90 | < 50 | 70 to 90 | C#Cc1ccc(CNC(=O)[C@@H]2C[C@@H](O)CN2C(=O)[C@@H](NC(=O)[C@H]2CCC3(CC2)C[C@H](N2CCC(c4cnc(N5CCN6c7cc(-c8ccccc8O)nnc7NC[C@H]6C5)nc4)CC2)C3)C(C)(C)C)c(F)c1 (single isomer, unassigned) [I-97]
 | 0.01 to 0.05 |  | > 0.1 |  | 0.001 to 0.01 | A (A (>500 fold)) | > 90 | < 50 | 70 to 90 | C#Cc1ccc(CNC(=O)[C@@H]2C[C@@H](O)CN2C(=O)[C@@H](NC(=O)[C@H]2CCC3(CC2)C[C@H](N2CCC(c4cnc(N5CCN6c7cc(-c8ccccc8O)nnc7NC[C@H]6C5)nc4)CC2)C3)C(C)(C)C)c(Cl)c1 (single isomer, unassigned) [I-98]
A (A (>90% degradation)) | < 0.01 | C (C (50-70% degradation)) | > 0.1 | B (B (>70-90% degradation)) | 0.001 to 0.01 | B (B (>100-500 fold)) |  |  |  | C#Cc1ccc(CNC(=O)[C@@H]2C[C@@H](O)CN2C(=O)[C@@H](NC(=O)[C@H]2CCC3(CC2)C[C@H](N2CCC(c4cnc(N5CCN6c7cc(-c8ccccc8O)nnc7NC[C@H]6C5)nc4)CC2)C3)C(C)(C)C)c(Cl)c1 (single isomer, unassigned) [I-99]
A (A (>90% degradation)) | < 0.01 |  | 0.01 to 0.1 |  | < 0.001 | C (C (10-100 fold)) |  | 70 to 90 | > 90 | C#Cc1ccc(CNC(=O)[C@@H]2C[C@@H](O)CN2C(=O)[C@@H](NC(=O)[C@H]2CCC3(CC2)C[C@H](N2CCC(c4cnc(N5CCN6c7cc(-c8ccccc8O)nnc7NC[C@H]6C5)nc4)CC2)C3)C(C)(C)C)c(OC)c1 (single isomer, unassigned) [I-100]
 | > 0.1 |  | > 0.1 |  | > 0.1 | C (C (10-100 fold)) | 50 to 70 | < 50 | < 50 | CC(C)(C)[C@H](NC(=O)[C@H]1CCC2(CC1)C[C@H](N1CCC(c3cnc(N4CCN5c6cc(-c7ccccc7O)nnc6NC[C@H]5C4)nc3)CC1)C2)C(=O)N1C[C@H](O)C[C@H]1C(=O)NCC#Cc1ccc(Cl)cc1 (single isomer, unassigned) [I-101]
A (A (>90% degradation)) | 0.01 to 0.05 |  | > 0.1 |  | 0.001 to 0.01 | C (C (10-100 fold)) |  | 50 to 70 | 70 to 90 | C#Cc1ccc(CNC(=O)[C@@H]2C[C@@H](O)CN2C(=O)[C@@H](NC(=O)[C@H]2CCC3(CC2)C[C@H](N2CCC(c4cnc(N5CCN6c7cc(-c8cccc(F)c8O)nnc7NC[C@H]6C5)nc4)CC2)C3)C(C)(C)C)cc1 (single isomer, unassigned) [I-102]
 | 0.05 to 0.1 |  | > 0.1 |  | 0.001 to 0.01 | C (C (10-100 fold)) | > 90 | 70 to 90 | 50 to 70 | CC#Cc1ccc(CNC(=O)[C@@H]2C[C@@H](O)CN2C(=O)[C@@H](NC(=O)[C@H]2CCC3(CC2)C[C@H](N2CCC(c4cnc(N5CCN6c7cc(-c8ccccc8O)nnc7NC[C@H]6C5)nc4)CC2)C3)C(C)(C)C)cc1 (single isomer, unassigned) [I-103]
